Measured values as given in EPA's ToxValDB 9.5.

Test system: Rattus norvegicus
[1] = acute, duration: 4 hours, inhalation, M, CD, Ocular: Corneal opacity and corrosion
[2] = acute, duration: 15 hours, inhalation, F, Sprague-Dawley, Body Weight: 12% decrease weight gain on GDs 6-15
[3] = acute, duration: 1 days, dermal, M/F, CD, Dermal: Mild skin irritation
[4] = chronic, duration: 2 years, oral, F, Sprague-Dawley, Body Weight: […] lower terminal body weight
[5] = chronic, duration: 2 years, oral, M/F, Sprague-Dawley, Hepatic: Increased serum ALT and AST at ?[…] / hepatocellular hypertrophy at 15 mg/kg/day / hepatocellular necrosis at 15 mg/kg/day only …
[6] = chronic, duration: 2 years, oral, M, Sprague-Dawley, Reproductive: Vascular mineralization in the testes
[7] = developmental, duration: 15 hours, inhalation, F, Sprague-Dawley, Developmental: 10% decreased neonatal body weight on PND 1
[8] = reproduction developmental, duration: 90 days, oral, M/F, Sprague-Dawley, Body Weight: >11% reduced body weight
[9] = reproduction developmental, duration: 90 days, oral, M/F, Sprague-Dawley, Hepatic: Increased absolute and relative liver weight in P-generation (36%) and F1-generation (30%) males / hepatocellular hypertrophy and …
[10] = short-term, duration: 2 weeks, inhalation, M, CD, Body Weight: 7% lower body weight on exposure day 5
[11] = short-term, duration: 14 days, oral, M, Body Weight: 24% decrease in overall body weight gain
[12] = short-term, duration: 14 days, oral, M, CD, Body Weight: 14% lower final body weight
[13] = short-term, duration: 14 days, oral, M, CD, Body Weight: 14% reduction in final body weight
[14] = short-term, duration: 14 days, oral, M, CD, Reproductive: 2-fold increase in serum estradiol
[15] = short-term, duration: 14 days, oral, M, CD, Reproductive: 63% increase in serum estradiol

Work on `O=C([O-])C(F)(F)C(F)(F)C(F)(F)C(F)(F)C(F)(F)C(F)(F)C(F)(F)F.[NH4+]` [Ammonium perfluorooctanoate] yielded an LOAEL (acute, duration: 1 hours, inhalation, M/F, albino, Neurological: Excessive salivation + Ocular: Red material around the eyes / lacrimation + Respiratory: Red nasal discharge / dry rales) of 18600 mg/m3, an LOAEL (acute, duration: 4 hours, inhalation, M, CD, Body Weight: Weight loss for 1-2 days after exposure (data not shown) + Respiratory: Pulmonary edema) of 380 mg/m3 and an LOAEL (acute, duration: 4 hours, inhalation, M, CD, Death: LC50) of 980 mg/m3. The LOAEL (acute, duration: 4 hours, inhalation, M, CD, Gastrointestinal: Stomach irritation) was 380 mg/m3, the NOAEL (acute, duration: 4 hours, inhalation, M, CD, Hepatic: Liver enlargement at 810 mg/m3 / no histological alterations) was 810 mg/m3 and the LOAEL [1] was 810 mg/m3. For the same compound, the NOAEL [1] was 380 mg/m3, the LOAEL [2] was 10 mg/m3 and the NOAEL [2] was 1 mg/m3. For the same compound, the LOAEL (acute, duration: 15 hours, inhalation, F, Sprague-Dawley, Death: 3/12 deaths on GDs 12, 13, and 17) was 25 mg/m3, the NOAEL (acute, duration: 15 hours, inhalation, F, Sprague-Dawley, Hepatic: 18% increase absolute liver weight at 25 mg/m3) was 25 mg/m3 and the LOAEL (acute, duration: 1 days, dermal, M/F, CD, Body Weight: 5-7% transient weight loss) was 3000 mg/kg-day. It also gave an LOAEL [3] of 5000 mg/kg-day, an NOAEL [3] of 3000 mg/kg-day and an LOAEL (acute, duration: 1 days, dermal, M, CD, Death: 14-day LD50) of 7000 mg/kg-day. For the same compound, the LOAEL (acute, duration: 1 days, oral, F, albino, Death: LD50) was 430 mg/kg-day, the LOAEL (acute, duration: 1 days, oral, M, albino, Death: LD50) was 680 mg/kg-day and the LOAEL (chronic, duration: 1 years, oral, M, CD, Body Weight: >10% reduced weight gain + Reproductive: Significant increase in serum estradiol at 1, 3, 6, 9, and 12 months (~100-180%) / …) was 13.6 mg/kg-day. The NOAEL (chronic, duration: 1 years, oral, M, CD, Hepatic: Increased relative liver weight) was 13.6 mg/kg-day, the NOAEL (chronic, duration: 2 years, oral, F, Sprague-Dawley) was 15 mg/kg-day and the LOAEL [4] was 15 mg/kg-day. The NOAEL [4] was 1.5 mg/kg-day, the NOAEL (chronic, duration: 2 years, oral, M/F, Sprague-Dawley) was 15 mg/kg-day and the LOAEL [5] was 15 mg/kg-day. It also gave an NOAEL [5] of 1.5 mg/kg-day, an LOAEL (chronic, duration: 2 years, oral, M/F, Sprague-Dawley, Other Cancer: CEL: testicular Leydig cell adenomas) of 15 mg/kg-day and an LOAEL (chronic, duration: 2 years, oral, M, CD, Body Weight: >10% reduction in weight gain most of the study + Other: Increased incidence of acinar cell + Reproductive: Increased incidence…) of 13.6 mg/kg-day. For the same compound, the LOAEL (chronic, duration: 2 years, oral, M, CD, Cancer: CEL: testicular Leydig cell adenomas and pancreatic acinar cell adenomas) was 13.6 mg/kg-day, the NOAEL (chronic, duration: 2 years, oral, M, CD, Hepatic: Increased relative liver weight) was 13.6 mg/kg-day and the LOAEL (chronic, duration: 2 years, oral, M, Sprague-Dawley, Other Noncancer: Inflammation of the salivary gland) was 1.5 mg/kg-day. The LOAEL [6] was 15 mg/kg-day, the NOAEL [6] was 1.5 mg/kg-day and the LOAEL [7] was 25 mg/m3. It also gave an NOAEL [7] of 10 mg/m3, an NOAEL (developmental, duration: 10 days, oral, F, Sprague-Dawley, Developmental: No alterations in fetal body weight or teratology) of 100 mg/kg-day and an LOAEL (developmental, duration: 90 days, oral, M/F, Sprague-Dawley, Developmental: Increased number of dead pups on PNDs 6-8) of 30 mg/kg-day. For the same compound, the NOAEL (developmental, duration: 90 days, oral, M/F, Sprague-Dawley, Developmental: Increased number of dead pups on PNDs 6-8 + Endocrine: Vacuolation of zona glomerulosa of adrenal gland) was 10 mg/kg-day, the LOAEL (reproduction developmental, duration: 10 days, oral, F, Sprague-Dawley, Body Weight: 33% reduced maternal body weight gain) was 100 mg/kg-day and the LOAEL [8] was 10 mg/kg-day. The NOAEL [8] was 3 mg/kg-day, the LOAEL (reproduction developmental, duration: 90 days, oral, M/F, Sprague-Dawley, Endocrine: Vacuolation of zona glomerulosa of adrenal gland) was 30 mg/kg-day and the LOAEL [9] was 3 mg/kg-day. For the same compound, the NOAEL [9] was 1 mg/kg-day, the NOAEL (reproduction developmental, duration: 90 days, oral, M/F, Sprague-Dawley, Reproductive: No alteration in reproductive performance in P0 or F1 generation) was 30 mg/kg-day and the NOAEL (short-term, duration: 2 weeks, dermal, M, CD) was 2000 mg/kg-day. The LOAEL (short-term, duration: 2 weeks, dermal, M, CD, Body Weight: 14% weight loss) was 200 mg/kg-day, the NOAEL (short-term, duration: 2 weeks, dermal, M, CD, Body Weight: 14% weight loss + Dermal: Skin irritation / acute necrotizing dermatitis) was 20 mg/kg-day and the LOAEL (short-term, duration: 2 weeks, dermal, M, CD, Hepatic: Foci of coagulative necrosis) was 20 mg/kg-day. It also gave an LOAEL [10] of 84 mg/m3, an NOAEL [10] of 7.6 mg/m3 and an NOAEL (short-term, duration: 2 weeks, inhalation, M, CD, Hepatic: Increased absolute and relative liver weight / hepatocellular hypertrophy at 7.6 mg/m3 + Neurological: No histological alterations…) of 84 mg/m3. It also gave an LOAEL (short-term, duration: 7 days, oral, M, Sprague-Dawley, Body Weight: 17% weight loss) of 50 mg/kg-day, an NOAEL (short-term, duration: 7 days, oral, M, Sprague-Dawley, Hepatic: 2-fold increase in relative and absolute liver weight) of 50 mg/kg-day and an NOAEL (short-term, duration: 7 days, oral, M, Sprague-Dawley, Hepatic: Increased liver weight, decreased serum cholesterol, triglyceride, hepatocellular hypertrophy at ?18 mg/kg/day) of 23 mg/kg-day. The NOAEL (short-term, duration: 7 days, oral, M, Wistar, Hepatic: 66% increase in absolute liver weight) was 16 mg/kg-day, the LOAEL [11] was 3 mg/kg-day and the NOAEL [11] was 1 mg/kg-day. It also gave an LOAEL [12] of 20 mg/kg-day, an NOAEL [12] of 2 mg/kg-day and an LOAEL [13] of 25 mg/kg-day. It also gave an NOAEL [13] of 10 mg/kg-day, an NOAEL (short-term, duration: 14 days, oral, M, CD, Hepatic: 34% increase in absolute and relative liver we) of 40 mg/kg-day and an NOAEL (short-term, duration: 14 days, oral, M, CD, Hepatic: 46% increase in relative liver weight at ?10 mg/kg/day) of 50 mg/kg-day. For the same compound, the LOAEL [14] was 2 mg/kg-day, the NOAEL [14] was 0.2 mg/kg-day and the LOAEL [15] was 10 mg/kg-day. For the same compound, the NOAEL [15] was 1 mg/kg-day and the LOAEL (short-term, duration: 14 days, oral, M, CD, Reproductive: 184% increase in serum estradiol) was 25 mg/kg-day.
